Each structure is given as a SMILES string.

Sequence of Factor D (P00746 26-253): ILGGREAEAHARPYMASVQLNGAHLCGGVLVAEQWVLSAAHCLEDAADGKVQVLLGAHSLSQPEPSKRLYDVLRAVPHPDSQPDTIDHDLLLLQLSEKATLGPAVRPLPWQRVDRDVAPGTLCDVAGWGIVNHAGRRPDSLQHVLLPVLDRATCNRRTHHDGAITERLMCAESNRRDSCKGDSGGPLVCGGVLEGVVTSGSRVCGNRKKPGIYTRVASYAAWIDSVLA

The experiment concerns the target Factor D (Homo sapiens (Human), UniProt P00746). Put plainly: biochemical. Format: biochemical. As to conditions: read-out: IC50.
By IC50 is commonly meant the concentration that gives 50% inhibition. `NC(=O)n1cc(NC(=O)N2C[C@@H](CO)C[C@H]2C(=O)NCc2cccc(Br)c2F)c2ccccc21` [Example 355, (2S,4S)-4-Hydroxymethyl-pyrrolidine-1,2-dicarboxylic acid 2-(3-bromo-2-fluoro-benzylamide) 1-[(1-carbamoyl-1H-indol-3-yl)-amide]]: the IC50 came out at 104 nM.

Regarding `NC(=O)n1cc(NC(=O)N2C3CC3C[C@H]2C(=O)Nc2ccncc2F)c2ccccc21` (stereo partly drawn) [Example 185, (1R,3S,5R)-2-Aza-bicyclo[3.1.0]hexane-2,3-dicarboxylic acid 2-[(1-carbamoyl-1H-indol-3-yl)-amide] 3-[(3-fluoro-pyridin-4-yl)-amide]], the IC50 worked out at 550 nM.

Regarding `NC(=O)n1cc(NC(=O)N2NCCC2C(=O)NCc2cccc(Cl)c2)c2ccccc21` (centres unmarked) [Example 434, Pyrazolidine-1,5-dicarboxylic acid 1-[(1-carbamoyl-1H-indol-3-yl)-amide]5-(3-chloro-benzylamide)], the IC50 stood at 35 nM.

With `COCCNC(=O)c1cc(Cl)c(F)c(CNC(=O)[C@@H]2C[C@@H](F)CN2C(=O)Nc2cn(C(N)=O)c3ccccc23)c1` [Example 438, (2S,4R)-4-Fluoro-pyrrolidine-1,2-dicarboxylic acid 1-[(1-carbamoyl-1H-indol-3-yl)-amide]2-[3-chloro-2-fluoro-5-(2-methoxy-ethylcarbamoyl)-benzylamide]], the half-maximal inhibitory concentration (IC50) was 924 nM.

As to `COc1ccc2c(c1)c(CC(=O)N1C3CC3C[C@H]1C(=O)NCc1cccc(Cl)c1F)cn2C(N)=O` (stereo partly drawn) [Example 452, 3-{2-[(1R,3S,5R)-3-(3-Chloro-2-fluoro-benzylcarbamoyl)-2-aza-bicylo[3.1.0]hex-2-yl]-2-oxo-ethyl}-5-methoxy-indole-1-carboxylic acid amide], the IC50 was 15 nM.

As to `CC(=O)c1nn(CC(=O)N2[C@@H]3C[C@@H]3C[C@H]2C(=O)Nc2cccc(OC(F)(F)F)c2F)c2ccc(OCC3CCCO3)cc12` (stereo partly drawn) [Example 772, (1R,3S,5R)-2-{2-[3-Acetyl-5-(tetrahydro-furan-2-ylmethoxy)-indazol-1-yl]-acetyl}-2-aza-bicyclo[3.1.0]hexane-3-carboxylic acid (2-fluoro-3-trifluoromethoxy-phenyl)-amide], the IC50 was determined as 7 nM.

As to `CC(=O)n1cc(NC(=O)N2C[C@@](F)(CN)C[C@H]2C(=O)NCc2cccc(Cl)c2F)c2ccccc21` [Example 412, 2S,4S)-4-Aminomethyl-4-fluoro-pyrrolidine-1,2-dicarboxylic acid 1-[(1-acetyl-1H-indol-3-yl)-amide]2-(3-chloro-2-fluoro-benzylamide], the IC50 is 14 nM.

Turning to `NC(=O)n1cc(NC(=O)N2CC[C@@H](O)[C@H]2C(=O)NCc2cnc(Cl)s2)c2ccccc21` [Example 283, (2S,3R)-3-Hydroxy-pyrrolidine-1,2-dicarboxylic acid 1-[(1-carbamoyl-1H-indol-3-yl)-amide] 2-[(2-chloro-thiazol-5-ylmethyl)-amide]], the IC50 was 900 nM.

On to `NC(=O)n1cc(NC(=O)N2C[C@@H](N)C[C@H]2C(=O)NCC2CCCCC2)c2ccccc21` [Example 74, (2S,4S)-4-Amino-pyrrolidine-1,2-dicarboxylic acid 1-[(1-carbamoyl-1H-indol-3-yl)-amide] 2-cyclohexylmethyl-amide], for which the half-inhibitory concentration (IC50) was found to be 3650 nM.

`CC(=O)c1cn(CC(=O)N2[C@@H]3C[C@@H]3C[C@H]2C(=O)N[C@H](C)c2cccc(Cl)c2F)c2cnccc12` [Example 641, (1R,3S,5R)-2-[2-(3-Acetyl-pyrrolo[2,3-c]pyridin-1-yl)-acetyl]-2-aza-bicyclo[3.1.0]hexane-3-carboxylic acid [(R)-1-(3-chloro-2-fluoro-phenyl)-ethyl]-amide]: the IC50 turned out to be 32 nM.

Regarding `COc1ccc2c(c1)c(NC(=O)N1[C@@H]3C[C@@H]3C[C@H]1C(=O)Nc1cc(Br)cc(C(=O)O)c1)cn2C(N)=O` [Example 342, 3-Bromo-5-{[(1R,3S,5R)-2-(1-carbamoyl-5-methoxy-1H-indol-3-ylcarbamoyl)-2-aza-bicyclo[3.1.0]hexane-3-carbonyl]-amino}-benzoic acid], the IC50 came to 55 nM.

For the compound `CC(=O)c1cn(CC(=O)N2[C@@H]3C[C@@H]3C[C@H]2C(=O)NCc2cccc(Cl)c2F)c2ccccc12` [Example 510, (1R,3S,5R)-2-[2-(3-Acetyl-indol-1-yl)-acetyl]-2-aza-bicyclo[3.1.0]hexane-3-carboxylic acid 3-chloro-2-fluoro-benzylamide], the IC50 came out at 16 nM.

On to `NC(=O)c1nn(CC(=O)N2[C@@H]3C[C@@H]3C[C@H]2C(=O)Nc2cccc(C3CC3)c2F)c2ccccc12` [Example 674, 1-{2-[(1R,3S,5R)-3-(3-Cyclopropyl-2-fluoro-phenylcarbamoyl)-2-aza-bicyclo[3.2.1]hex-2-yl]-2-oxo-ethyl}-1H-indazole-3-carboxylic acid amide], for which the IC50 came out at 75 nM.

As to `CC(=O)c1nn(CC(=O)N2[C@@H]3C[C@@H]3C[C@H]2C(=O)Nc2cncc(Br)n2)c2ccccc12` [Example 757, (1R,3S,5R)-2-[2-(3-Acetyl-indazol-1-yl)-acetyl]-2-aza-bicyclo[3.1.0]hexane-3-carboxylic acid (6-bromo-pyrazin-2-yl)-amide], the IC50 is 3 nM.

As to `NC(=O)n1cc(NC(=O)N2C[C@@H](CO)C[C@H]2C(=O)NCc2cccc(Cl)c2F)c2ccccc21` [Example 312, (2S,4S)-4-Hydroxymethyl-pyrrolidine-1,2-dicarboxylic acid 1-[(1-carbamoyl-1H-indol-3-yl)-amide] 2-(3-chloro-2-fluoro-benzylamide)], the IC50 was found to be 115 nM.

As to `NC(=O)n1cc(CC(=O)N2C[C@@H]3C[C@@H]3[C@H]2C(=O)N[C@H](CO)c2cccc(Cl)c2F)c2ccccc21` [Example 443, 3-(2-{(1S,2S,5R)-2-[(S)-1-(3-Chloro-2-fluoro-phenyl)-2-hydroxy-ethylcarbamoyl]-3-azabicyclo[3.1.0]hex-3-yl}-2-oxo-ethyl)-indole-1-carboxylic acid amide], the IC50 stood at 4470 nM.

In the case of `Cc1cccnc1-c1cccc(NC(=O)[C@@H]2C[C@H]3C[C@H]3N2C(=O)Cn2nc(C(N)=O)c3ccncc32)c1F` [Example 687, 1-(2-{(1R,3S,5R)-3-[2-Fluoro-3-(3-methyl-pyridin-2-yl)-phenylcarbamoyl]-2-aza-bicyclo[3.1.0]hex-2-yl}-2-oxo-ethyl)-1H-pyrazolo[3,4-c] pyridine-3-carboxylic acid amide], the IC50 stood at 98 nM.

Consider `CC(=O)c1cn(CC(=O)N2C[C@](C)(F)C[C@H]2C(=O)N[C@H](CO)c2cccc(Cl)c2F)c2ncccc12` [Example 614, (2S,4R)-1-[2-(3-Acetyl-pyrrolo[2,3-b]pyridin-1-yl)-acetyl]-4-fluoro-4-methyl-pyrrolidine-2-carboxylic acid [(S)-1-(3-chloro-2-fluoro-phenyl)-2-hydroxy-ethyl]-amide], for which the IC50 worked out at 245 nM.

Regarding `CN(C)CCOc1ccc2c(c1)c(CC(=O)N1[C@@H]3C[C@@H]3C[C@H]1C(=O)NCc1cccc(Cl)c1F)cn2C(N)=O` [Example 472, 3-{2-[(1R,3S,5R)-3-(3-Chloro-2-fluoro-benzylcarbamoyl)-2-aza-bicyclo[3.1.0]hex-2-yl]-2-oxo-ethyl}-5-(2-dimethylamino-ethoxy)-indole-1-carboxylic acid amide], the IC50 came out at 255 nM.

Regarding `NC(=O)n1cc(NC(=O)N2[C@@H](CO)CC[C@H]2C(=O)Nc2cccc(OC(F)(F)F)c2)c2ccccc21` [Example 360, (2S,5R)-5-Hydroxymethyl-pyrrolidine-1,2-dicarboxylic acid 1-[(1-carbamoyl-1H-indol-3-yl)-amide]2-[(3-trifluoromethoxy-phenyl)-amide]], the IC50 is 1000 nM.

Consider `NC(=O)c1cn(CC(=O)N2[C@@H]3C[C@@H]3C[C@H]2C(=O)NCc2cccc(Cl)c2F)c2ccccc12` [Example 475, 1-{2-[(1R,3S,5R)-3-(3-Chloro-2-fluoro-benzylcarbamoyl)-2-aza-bicyclo[3.1.0]hex-2-yl]-2-oxo-ethyl}-1H-indole-3-carboxylic acid amide], for which the IC50 was found to be 350 nM.

`NC(=O)n1cc(NC(=O)N2C[C@H](F)C[C@H]2CNS(=O)(=O)c2ccccc2F)c2ccccc21` [Example 104, 3-({(2S,4R)-4-Fluoro-2-[(2-fluoro-benzenesulfonylamino)-methyl]-pyrrolidine-1-carbonyl}-amino)-indole-1-carboxylic acid amide]: the IC50 is 1490 nM.

In the case of `COC(=O)c1ccc2c(C(C)=O)cn(CC(=O)N3[C@@H]4C[C@@H]4C[C@H]3C(=O)NCc3cccc(Cl)c3F)c2c1` [Example 526, 3-Acetyl-1-{2-[(1R,3S,5R)-3-(3-chloro-2-fluoro-benzylcarbamoyl)-2-aza-bicyclo[3.1.0]hex-2-yl]-2-oxo-ethyl}-1H-indole-6-carboxylic acid methyl ester], the IC50 was 54 nM.

Consider `CC(=O)c1cn(CC(=O)N2C[C@H]3C[C@H]3[C@H]2C(=O)NCc2cccc(Cl)c2F)c2ccncc12` [Example 537, (1R,2S,5S)-3-[2-(3-Acetyl-pyrrolo[3,2-c]pyridin-1-yl)-acetyl]-3-aza-bicyclo[3.1.0] hexane-2-carboxylic acid 3-chloro-2-fluoro-benzylamide], for which the IC50 is 609 nM.

`NC(=O)n1cc(NC(=O)N2C[C@@H](N)C[C@H]2C(=O)NCc2ccccc2-c2ccccc2)c2ccccc21` [Example 51, (2S,4S)-4-Amino-pyrrolidine-1,2-dicarboxylic acid 2-[(biphenyl-2-ylmethyl)-amide] 1-[(1-carbamoyl-1H-indol-3-yl)-amide]]: the concentration for half-maximal inhibition (IC50) stood at 8500 nM.

For `C[C@@]1(F)C[C@@H](C(=O)NCc2cccc(Cl)c2F)N(C(=O)Cn2cc(C(=O)CO)c3ccccc32)C1` [Example 543, (2S,4R)-4-Fluoro-1-{2-[3-(2-hydroxy-acetyl)-indol-1-yl]-acetyl}-4-methyl-pyrrolidine-2-carboxylic acid 3-chloro-2-fluoro-benzylamide], the IC50 came to 245 nM.

For the origin of these results see patent publication US9085555B2, “Complement pathway modulators and uses thereof” (priority 2011, dated 2015).
